Assay results: patent US9145411B2, “Substituted amino-pyrimidine derivatives” (Asana Biosciences, LLC, priority 2012, dated 2015)

Test system: pS6RP
Assay: In-cell Western assay, pS6RP, U87MG cells
Assay type: cell-based
Conditions: Homo sapiens, U-87 MG, read-out: inhibition of pS6RP, IC50
Procedure: Cells from human prostate cancer cell line PC3 (American Type Culture Collection (ATCC), Manassas, Va. 20108 USA) were seeded at an optimal density of 22,000 cell/well in 96-well plates containing Ham's F12K medium (90 μL) and incubated overnight. The compound dilutions were carried out in 100% DMSO followed by a dilution in the medium. Test compounds were added in serial dilutions to the wells and incubated for 2 hours. The cells were washed and fixed with 4% paraformaldehyde. After incubation at room temperature for 1 hour in the dark, blocking was done for 2 hours at room temperature. […] IC50 values were calculated using a sigmoidal dose-response curve fit in GraphPad Prism® v5 software.
In-cell Western assays for pAkt(T308) and pS6RP were also carried out in a glioma cancer cell line with a PTEN null mutation (U87MG cells), in a similar manner to the protocol described above for PC3 cells, in order to assess the ability of the compounds to inhibit the Akt-pathway in a glioma cancer cell line. […] Compounds of the invention cause inhibition of pAkt(T308), pAkt(S473) and pS6RP in U87MG, BT474 and T47D cell lines as determined by these assays.

- IC50: < 0.5 µM
SMILES: CC(=O)Nc1cccc(-c2cnc3c(N4CCOCC4)nc(-c4cnc(N)nc4)nc3c2)c1 [Example 3, N-(3-(2-(2-Aminopyrimidin-5-yl)-4-morpholinopyrido[3,2-d]pyrimidin-7-yl)-phenyl)acetamide]
